Among the data in PubChem BioAssay (NCI) are TGI values, retold here.

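Following 48 hours of exposure in 96-well plates, responses at five concentrations were used to interpolate endpoints linearly. TGI: concentration producing complete growth inhibition.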 Where a SMILES comes first, the peptide text is derived from it. [ ]: non-standard residue; d: D form. The star is where a group is joined. Bn2Val = CC(C)[C@@H](C(=O)*)N(Cc1ccccc1)Cc1ccccc1; NHPiperonyl = c1cc2c(cc1CN*)OCO2; NMeV = CN[C@H](C(=O)O)C(C)C; dNMeA = CN[C@H](C)C(=O)O

Some test systems named below: A498 renal; A549 NSCLC; ACHN renal; DU-145 prostate; HCC-2998 colon; HCT-15 colon; HOP-62 NSCLC; MALME-3M melanoma; MDA-MB-231 breast; MDA-N; MOLT-4 leukemia; NCI-H226 lung; OVCAR-8 ovarian; RPMI-8226 leukemia; SK-MEL-5 melanoma; SN12C renal; SR leukemia; U251 CNS; HS 578T breast.
Holding throughout (assay): NCI anticancer screen, dose series, 48 h

Regarding `CC[C@]1(Cc2ccc(OC)c(OC)c2)C=[N+]([O-])O[C@H](OC2CCCCC2c2ccccc2)[C@@H]1OC(C)=O` (stereo partly drawn), the TGI in the assay with A498 renal, in the assay with A549 NSCLC, in the assay on ACHN renal, with DU-145 prostate, in the assay with HCC-2998 colon and with HCT-15 colon was over 100 µM in each case. For the same molecule, the TGI with HOP-62 NSCLC is over 100 µM; in the assay with MALME-3M melanoma, over 100 µM; in the assay with MDA-MB-231 breast it was over 100 µM; in the assay on MDA-N it was over 100 µM; in the assay with MOLT-4 leukemia, 63 µM; in the assay on NCI-H226 lung, over 100 µM. The TGI in the assay with OVCAR-8 ovarian was over 100 µM; in the assay on RPMI-8226 leukemia it was 69.7 µM; with SK-MEL-5 melanoma, over 100 µM; in the assay on SN12C renal, over 100 µM; with SR leukemia, 91.1 µM; in the assay on U251 CNS, over 100 µM.
Turning to `COc1ccc2c(c1)OCC1=C2Oc2ccccc2C1`, the TGI was over 100 µM in the assay with A498 renal; over 100 µM in the assay on A549 NSCLC; over 100 µM in the assay with ACHN renal; over 100 µM in the assay on DU-145 prostate; 54 µM with HCC-2998 colon; over 100 µM in the assay with HCT-15 colon. The TGI in the assay on HOP-62 NSCLC was over 100 µM; in the assay with MALME-3M melanoma it was over 100 µM; in the assay with MDA-MB-231 breast it was over 100 µM; in the assay with MDA-N, 71.1 µM; in the assay with MOLT-4 leukemia, 85.5 µM; in the assay with NCI-H226 lung, over 100 µM. Moreover, the TGI is over 100 µM in the assay on OVCAR-8 ovarian; over 100 µM in the assay with RPMI-8226 leukemia; 28.3 µM with SK-MEL-5 melanoma; over 100 µM in the assay on SN12C renal; over 100 µM in the assay on SR leukemia; over 100 µM with U251 CNS.
As to `[N-]=[N+]=CC(=O)OC1CCc2ccccc21` (stereo not drawn), the TGI is over 100 µM with A498 renal; 30.3 µM in the assay with ACHN renal; 48.7 µM with DU-145 prostate; over 100 µM in the assay with HCC-2998 colon; over 100 µM in the assay with HCT-15 colon; over 100 µM with HOP-62 NSCLC. For the same molecule, the TGI in the assay with MALME-3M melanoma, in the assay on MDA-MB-231 breast, in the assay on MDA-N, in the assay with NCI-H226 lung, in the assay on RPMI-8226 leukemia and in the assay with SK-MEL-5 melanoma was over 100 µM throughout. The TGI in the assay on SN12C renal, in the assay on SR leukemia and in the assay with U251 CNS was over 100 µM in each case.
On to `O=C1OCCC12CN(Cc1ccccc1)N=N2` (stereo not drawn), for which the TGI in the assay on A498 renal, in the assay on A549 NSCLC, with ACHN renal, in the assay on DU-145 prostate, with HCC-2998 colon and in the assay with HCT-15 colon was over 100 µM throughout. The TGI in the assay with HOP-62 NSCLC, in the assay with MALME-3M melanoma, with MDA-MB-231 breast, with MDA-N, with MOLT-4 leukemia and in the assay on OVCAR-8 ovarian was over 100 µM in each case. In addition, the TGI in the assay on RPMI-8226 leukemia was over 100 µM; with SK-MEL-5 melanoma, over 100 µM; in the assay on SN12C renal it was over 100 µM; in the assay with SR leukemia it was 74.6 µM; in the assay on U251 CNS, over 100 µM.
Take `Nc1cc(N2CCOCC2)nc(=O)n1-c1ccccc1`: the TGI in the assay on A498 renal, with A549 NSCLC, in the assay with ACHN renal, with DU-145 prostate, in the assay on HCC-2998 colon and with HCT-15 colon was over 100 µM throughout. The TGI in the assay with HOP-62 NSCLC, in the assay with MDA-N, with MOLT-4 leukemia, in the assay with NCI-H226 lung, in the assay on OVCAR-8 ovarian and with RPMI-8226 leukemia was over 100 µM throughout. Moreover, the TGI in the assay on SK-MEL-5 melanoma, in the assay on SN12C renal, with SR leukemia and in the assay with U251 CNS was over 100 µM throughout.
Consider `CC(C)[C@H](NC(=O)[C@H](C(C)C)N(Cc1ccccc1)Cc1ccccc1)C(=O)N(C)[C@H](C(=O)N1CCC[C@H]1C(=O)N(C)[C@H](C)C(=O)NCc1ccc2c(c1)OCO2)C(C)C` (Bn2Val-V[NMeV]P[dNMeA]-NHPiperonyl), for which the TGI in the assay with A549 NSCLC was over 100 µM; with ACHN renal, over 100 µM; with DU-145 prostate it was over 33.2 µM; with HCC-2998 colon it was 37.1 µM; in the assay with HCT-15 colon it was over 100 µM; with HOP-62 NSCLC it was over 100 µM. In addition, the TGI in the assay with HS 578T breast is over 100 µM; in the assay on MALME-3M melanoma, over 65.3 µM; with MDA-MB-231 breast, over 100 µM; with MDA-N it was 49.4 µM; in the assay with MOLT-4 leukemia, over 100 µM; with NCI-H226 lung, over 100 µM. Also, the results for the TGI in the assay with OVCAR-8 ovarian, in the assay with RPMI-8226 leukemia and with U251 CNS were over 100 µM, 6.2 µM and 43 µM, respectively.
As for `Cn1cc(S(=O)(=O)NC(=O)Nc2ccc(Cl)cc2)c(=O)c2ccc(Cl)cc21`, the TGI in the assay on A549 NSCLC, in the assay with ACHN renal, with HCC-2998 colon, in the assay with HCT-15 colon, in the assay on HOP-62 NSCLC and in the assay on HS 578T breast was over 100 µM in each case. Also, the TGI in the assay with MALME-3M melanoma, in the assay on MDA-MB-231 breast, with MDA-N, with MOLT-4 leukemia, with NCI-H226 lung and in the assay on OVCAR-8 ovarian was over 100 µM in each case. Moreover, the TGI with SK-MEL-5 melanoma, in the assay on SN12C renal, in the assay on SR leukemia and with U251 CNS was over 100 µM throughout.
With `O=C1CSC(c2c[nH]c3ccccc23)N1c1cccc([N+](=O)[O-])c1` (stereo not drawn), the TGI in the assay with A549 NSCLC, with DU-145 prostate, with HCC-2998 colon, in the assay with HCT-15 colon, with HOP-62 NSCLC and with MDA-MB-231 breast was over 100 µM each time. Also, the TGI in the assay on MDA-N, in the assay on MOLT-4 leukemia, with OVCAR-8 ovarian, in the assay on RPMI-8226 leukemia, in the assay with SK-MEL-5 melanoma and in the assay on SN12C renal was over 100 µM throughout. In addition, the TGI in the assay on SR leukemia and in the assay with U251 CNS was over 100 µM in each case.
Regarding `Cc1ccc(N/C(=C(/C(Cl)=C(Cl)Cl)[N+](=O)[O-])n2nnc3ccccc32)cc1`, the TGI was 37.3 µM in the assay on A549 NSCLC; 44.9 µM in the assay on ACHN renal; 35.1 µM in the assay on HCC-2998 colon; 52.3 µM with HCT-15 colon; 39.7 µM with HOP-62 NSCLC; 47.1 µM with HS 578T breast. Further, the TGI is 29.9 µM in the assay on MALME-3M melanoma; 38.1 µM with MDA-N; over 100 µM with MOLT-4 leukemia; 35.3 µM in the assay on NCI-H226 lung; 38 µM with OVCAR-8 ovarian; 64.8 µM in the assay with RPMI-8226 leukemia. The same molecule showed a TGI in the assay on SN12C renal of 43.7 µM.
As for `O=C(N/C(=C\NC1=NCCS1)C(=O)N1CSC[C@@H]1C(=O)O)c1ccccc1`, the TGI in the assay on A498 renal, in the assay with A549 NSCLC, in the assay on ACHN renal, in the assay with DU-145 prostate, in the assay with HCC-2998 colon and in the assay on HCT-15 colon was over 100 µM in each case. Further, the TGI with HOP-62 NSCLC, in the assay with MDA-MB-231 breast, in the assay with MDA-N, in the assay with MOLT-4 leukemia, with NCI-H226 lung and with OVCAR-8 ovarian was over 100 µM throughout. The TGI in the assay on RPMI-8226 leukemia, in the assay with SK-MEL-5 melanoma, in the assay on SN12C renal and in the assay on U251 CNS was over 100 µM throughout.
For `CSC1=NC(=O)CCN1C1OCC(OC(C)=O)C(OC(C)=O)C1OC(C)=O` (stereo not drawn), the TGI is 25.3 µM in the assay with A498 renal; over 31.6 µM with A549 NSCLC; over 31.6 µM in the assay on ACHN renal; over 31.6 µM in the assay with DU-145 prostate; over 31.6 µM in the assay on HCC-2998 colon; over 31.6 µM in the assay with HCT-15 colon. In addition, the TGI with HOP-62 NSCLC was over 31.6 µM; in the assay with HS 578T breast it was 22.5 µM; with MALME-3M melanoma, 23.2 µM; in the assay with MDA-MB-231 breast it was 22.4 µM; with MOLT-4 leukemia, over 31.6 µM; in the assay on NCI-H226 lung, over 31.6 µM. Also, the TGI in the assay with OVCAR-8 ovarian is over 31.6 µM; in the assay on RPMI-8226 leukemia it was over 31.6 µM; in the assay on SK-MEL-5 melanoma it was 17.9 µM; in the assay with SN12C renal it was over 31.6 µM; in the assay with SR leukemia it was over 31.6 µM; with U251 CNS, over 31.6 µM.
Regarding `S=C(Nc1ccc(Cl)cc1)c1ccc(CN2CCCCC2)s1`, the TGI with A498 renal is 29 µM; in the assay on A549 NSCLC, over 100 µM; with ACHN renal, 60.2 µM; with DU-145 prostate, over 100 µM; with HCC-2998 colon it was 21.6 µM; in the assay with HCT-15 colon, over 100 µM. The TGI in the assay with HS 578T breast is over 100 µM; in the assay with MDA-N, 16.8 µM; with MOLT-4 leukemia, 30.5 µM; with OVCAR-8 ovarian, 27.1 µM; in the assay on RPMI-8226 leukemia, 20.2 µM; in the assay with SK-MEL-5 melanoma, 15.1 µM. Besides, the TGI in the assay on SN12C renal was 39.2 µM; with SR leukemia it was 19.5 µM; in the assay on U251 CNS, over 100 µM.
With `O=C(O)COc1cc(-c2ccccc2F)nc2cc3c(cc12)OCO3`, the TGI in the assay with A549 NSCLC, in the assay with ACHN renal, with DU-145 prostate, in the assay on HCC-2998 colon, in the assay on HCT-15 colon and with HOP-62 NSCLC was over 100 µM each time. Moreover, the TGI with MALME-3M melanoma, in the assay with MDA-MB-231 breast, in the assay on MDA-N, in the assay on MOLT-4 leukemia, in the assay on NCI-H226 lung and with OVCAR-8 ovarian was over 100 µM in each case. In addition, the TGI in the assay on RPMI-8226 leukemia, in the assay on SK-MEL-5 melanoma, with SN12C renal, in the assay on SR leukemia and in the assay on U251 CNS was over 100 µM throughout.
